Drawing on BindingDB's records for PubMed 11916140 (Universit&Agrave, 2001), this text covers Ki for 6 compounds.

Assay in all cases: Inhibition Assay
Common to all, as to conditions: pH 7.4; 25 °C

For assay [1], the target named is Carbonic anhydrase 1 (Homo sapiens, UniProt P00915). From the text: (§1) Inhibition assay using human Carbonic anhydrase I and II and bovine carbonic anhydrase IV.
The target in assay [2] is T1, Carbonic anhydrase 4 (Bos taurus, UniProt Q95323).
T1 sequence (Q95323 whole entry): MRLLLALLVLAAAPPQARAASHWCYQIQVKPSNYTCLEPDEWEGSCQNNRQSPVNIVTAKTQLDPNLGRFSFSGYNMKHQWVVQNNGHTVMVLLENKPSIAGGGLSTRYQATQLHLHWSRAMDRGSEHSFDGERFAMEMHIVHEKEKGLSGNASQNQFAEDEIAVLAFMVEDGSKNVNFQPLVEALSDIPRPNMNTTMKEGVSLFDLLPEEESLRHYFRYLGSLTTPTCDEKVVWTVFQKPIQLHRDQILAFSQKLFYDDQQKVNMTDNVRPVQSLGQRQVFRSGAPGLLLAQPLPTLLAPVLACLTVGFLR
Text: as §1

For assay [3], the target named is Carbonic anhydrase 2 (Homo sapiens, UniProt P00918).
Text: as §1

By Ki is commonly meant a measure of affinity in units of concentration, obtained from inhibition or displacement. A low value points to a stronger hold on the target.

Carbonic anhydrase 1, sequence (P00915 whole entry): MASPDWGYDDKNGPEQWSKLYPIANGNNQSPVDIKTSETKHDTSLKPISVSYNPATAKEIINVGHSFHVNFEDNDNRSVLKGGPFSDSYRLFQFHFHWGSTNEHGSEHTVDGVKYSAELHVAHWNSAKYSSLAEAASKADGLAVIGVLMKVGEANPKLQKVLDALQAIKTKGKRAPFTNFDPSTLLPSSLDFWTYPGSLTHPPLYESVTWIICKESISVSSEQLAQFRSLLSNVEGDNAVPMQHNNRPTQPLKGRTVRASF

In the case of `NS(=O)(=O)OCc1csc(-c2ccc(S(=O)(=O)c3ccc(Br)cc3)cc2)n1` [2-[4-(4-Bromophenylsulfonyl)-Phenyl}-thiazole-4-yl-methyl-sulfamate, 3c], the Ki in assay [1] is more than 1000 nM; in assay [2], 54 nM; in assay [3] it was 21 nM.

As to `NS(=O)(=O)NCc1csc(-c2ccc(S(=O)(=O)c3ccc(Br)cc3)cc2)n1` [2-[4-(4-Bromophenylsulfonyl)-Phenyl}-thiazole-4-yl-methyl-sulfamide, 2c], the Ki in assay [1] is more than 1000 nM; in assay [2] it was 50 nM; in assay [3], 16 nM.

On to `NS(=O)(=O)OCc1csc(-c2ccc(S(=O)(=O)c3ccc(Cl)cc3)cc2)n1` [2-[4-(4-Chlorophenylsulfonyl)-Phenyl}-thiazole-4-yl-methyl-sulfamate, 3b], for which the Ki in assay [1] is more than 1000 nM; in assay [2] it was 66 nM; in assay [3], 30 nM.

On to `NS(=O)(=O)NCc1csc(-c2ccc(S(=O)(=O)c3ccc(Cl)cc3)cc2)n1` [2-[4-(4-Chlorophenylsulfonyl)-Phenyl}-thiazole-4-yl-methyl-sulfamide, 2b], for which the Ki is more than 1000 nM in assay [1], 65 nM in assay [2] and 24 nM in assay [3].

On to `NS(=O)(=O)OCc1csc(-c2ccc(S(=O)(=O)c3ccccc3)cc2)n1` [2-[4-(Phenylsulfonyl)-Phenyl}-thiazole-4-yl-methyl-sulfamate, 3a], for which the results for the inhibition constant (Ki) in assay [1], in assay [2] and in assay [3] were more than 1000 nM, 87 nM and 33 nM, respectively.

Turning to `NS(=O)(=O)NCc1csc(-c2ccc(S(=O)(=O)c3ccccc3)cc2)n1` [2-[4-(Phenylsulfonyl)-Phenyl}-thiazole-4-yl-methyl-sulfamide, 2a], the Ki in assay [1] was more than 1000 nM; in assay [2], 83 nM; in assay [3], 28 nM.
